Test results: PubChem BioAssay (NCI)
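Here, GI50 denotes the concentration required for 50% inhibition of growth. TGI denotes the concentration required for complete inhibition of growth.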

Legend:
Assay in all cases: NCI anticancer screen, dose series, 384-well format
[1] = system: CCRF-CEM leukemia
[2] = system: MDA-MB-468 breast
[3] = system: SF-268 CNS
[4] = system: SK-MEL-5 melanoma
[5] = system: NCI/ADR-RES ovarian
[6] = system: M14 melanoma
[7] = system: COLO 205 colon
[8] = system: SW-620 colon
[9] = system: HCC-2998 colon
[10] = system: SF-539 CNS
[11] = system: OVCAR-4 ovarian
[12] = system: SK-OV-3 ovarian
[13] = system: SF-295 CNS
[14] = system: NCI-H460 NSCLC
[15] = system: SK-MEL-28 melanoma
[16] = system: UO-31 renal
[17] = system: KM12 colon
[18] = system: MDA-MB-231 breast
[19] = system: LOX IMVI melanoma
[20] = system: HOP-92 NSCLC
[21] = system: U251 glioblastoma
[22] = system: NCI-H522 lung
[23] = system: BT-549 breast
[24] = system: MOLT-4 leukemia
[25] = system: OVCAR-8 ovarian
[26] = system: SR leukemia
[27] = system: RXF 393 renal
[28] = system: EKVX NSCLC
[29] = system: ACHN renal
[30] = system: UACC-62 melanoma
[31] = system: NCI-H23 lung
[32] = system: IGROV1 ovarian
[33] = system: HS 578T breast
[34] = system: HCT-116 colon
[35] = system: 786-0 renal
[36] = system: SN12C renal
[37] = system: MCF7 breast
[38] = system: OVCAR-3 ovarian
[39] = system: A549 NSCLC
[40] = system: SNB-19 CNS
[41] = system: MALME-3M melanoma
[42] = system: K-562 leukemia
[43] = system: HT29 colon
[44] = system: SNB-75 CNS
[45] = system: TK-10 renal
[46] = system: DU-145 prostate
[47] = system: NCI-H226 lung
[48] = system: CAKI-1 renal
[49] = system: A498 renal
[50] = system: PC-3 prostate
[51] = system: HOP-62 NSCLC
[52] = system: UACC-257 melanoma
[53] = system: HCT-15 colon
[54] = system: MDA-MB-435 melanoma
[55] = system: T-47D breast
[56] = system: RPMI-8226 leukemia
[57] = system: HL-60(TB) leukemia
[58] = system: NCI-H322M lung
[59] = system: SK-MEL-2 melanoma
[60] = system: OVCAR-5 ovarian

Cc1cc(O)c(-c2ccc([C@@H](C)CN(C)C)cc2)c2c1[nH]c(=O)c1sccc12
GI50 [1]: 199 nM
TGI [1]: 399 nM
GI50 [2]: 27.8 nM
TGI [2]: 67.1 nM
GI50 [3]: 338 nM
TGI [3]: 1420 nM
GI50 [4]: 233 nM
TGI [4]: 547 nM
GI50 [5]: 2060 nM
TGI [5]: 4650 nM
GI50 [6]: 413 nM
TGI [6]: 1250 nM
GI50 [7]: 1990 nM
TGI [7]: 4050 nM
GI50 [8]: 443 nM
TGI [8]: 1260 nM
GI50 [9]: 197 nM
TGI [9]: 467 nM
GI50 [10]: 133 nM
TGI [10]: 369 nM
GI50 [11]: 199 nM
TGI [11]: 400 nM
GI50 [12]: 171 nM
TGI [12]: 410 nM
GI50 [13]: 1810 nM
TGI [13]: 3680 nM
GI50 [14]: 186 nM
TGI [14]: 341 nM
GI50 [15]: 284 nM
TGI [15]: 1610 nM
GI50 [16]: 266 nM
TGI [16]: 663 nM
GI50 [17]: 286 nM
TGI [17]: 850 nM
GI50 [18]: 265 nM
TGI [18]: 682 nM
GI50 [19]: 253 nM
TGI [19]: 580 nM
GI50 [20]: 357 nM
TGI [20]: 2120 nM
GI50 [21]: 173 nM
TGI [21]: 1100 nM
GI50 [22]: 180 nM
TGI [22]: 350 nM
GI50 [23]: 192 nM
TGI [23]: 451 nM
GI50 [24]: 156 nM
TGI [24]: 295 nM
GI50 [25]: 223 nM
TGI [25]: 447 nM
GI50 [26]: 75.7 nM
TGI [26]: 179 nM
GI50 [27]: 14.6 nM
TGI [27]: 31.7 nM
GI50 [28]: 451 nM
TGI [28]: 1500 nM
GI50 [29]: 357 nM
TGI [29]: 1240 nM
GI50 [30]: 283 nM
TGI [30]: 888 nM
GI50 [31]: 212 nM
TGI [31]: 446 nM
GI50 [32]: 362 nM
TGI [32]: 1270 nM
GI50 [33]: 129 nM
TGI [33]: 289 nM
GI50 [34]: 200 nM
TGI [34]: 383 nM
GI50 [35]: 50 nM
TGI [35]: 193 nM
GI50 [36]: 224 nM
TGI [36]: 571 nM
GI50 [37]: 63.6 nM
TGI [37]: 217 nM
GI50 [38]: 189 nM
TGI [38]: 381 nM
GI50 [39]: 225 nM
TGI [39]: 482 nM
GI50 [40]: 335 nM
TGI [40]: 1110 nM
GI50 [41]: 1000 nM
TGI [41]: 2190 nM
GI50 [42]: 295 nM
TGI [42]: 746 nM
GI50 [43]: 1780 nM
TGI [43]: 3270 nM
GI50 [44]: 159 nM
TGI [44]: 753 nM
GI50 [45]: 265 nM
TGI [45]: 713 nM
GI50 [46]: 279 nM
TGI [46]: 706 nM
GI50 [47]: 285 nM
TGI [47]: 662 nM
GI50 [48]: 292 nM
TGI [48]: 996 nM
GI50 [49]: 160 nM
TGI [49]: 319 nM
GI50 [50]: 286 nM
TGI [50]: 757 nM
GI50 [51]: 206 nM
TGI [51]: 401 nM
GI50 [52]: 831 nM
TGI [52]: 2090 nM
GI50 [53]: 378 nM
TGI [53]: 1390 nM
GI50 [54]: 444 nM
TGI [54]: 1430 nM
GI50 [55]: 1200 nM
TGI [55]: 5800 nM
GI50 [56]: 36.8 nM
TGI [56]: 108 nM
GI50 [57]: 19.7 nM
TGI [57]: 37.5 nM
GI50 [58]: 411 nM
TGI [58]: 1210 nM

O=c1[nH]c(=O)n(C2CC(O)C(CO)O2)cc1C(F)(F)F (stereo unspecified)
GI50 [1]: 234 nM
TGI [1]: 469 nM
GI50 [2]: 2610 nM
TGI [2]: 19500 nM
GI50 [3]: 2210 nM
TGI [3]: 14300 nM
GI50 [5]: 3880 nM
TGI [5]: 36500 nM
GI50 [6]: 2420 nM
TGI [6]: 16100 nM
GI50 [8]: 1240 nM
TGI [8]: > 100000 nM
GI50 [10]: 4810 nM
TGI [10]: 20400 nM
GI50 [11]: 88500 nM
TGI [11]: > 100000 nM
GI50 [12]: 7070 nM
TGI [12]: > 100000 nM
GI50 [13]: 3210 nM
TGI [13]: 12300 nM
GI50 [15]: 6780 nM
TGI [15]: > 100000 nM
GI50 [16]: 2550 nM
TGI [16]: 14200 nM
GI50 [17]: 7510 nM
TGI [17]: > 100000 nM
GI50 [59]: > 100000 nM
TGI [59]: > 100000 nM
GI50 [18]: 23600 nM
TGI [18]: > 100000 nM
GI50 [19]: 813 nM
TGI [19]: 9830 nM
GI50 [20]: 50800 nM
TGI [20]: > 100000 nM
GI50 [21]: 4870 nM
TGI [21]: 79700 nM
GI50 [22]: 21800 nM
TGI [22]: > 100000 nM
GI50 [23]: 763 nM
TGI [23]: 9010 nM
GI50 [24]: 197 nM
TGI [24]: 459 nM
GI50 [25]: 4720 nM
TGI [25]: 30200 nM
GI50 [27]: 2480 nM
TGI [27]: 87200 nM
GI50 [28]: > 100000 nM
TGI [28]: > 100000 nM
GI50 [29]: 519 nM
TGI [29]: 2950 nM
GI50 [30]: 3250 nM
TGI [30]: 23000 nM
GI50 [31]: 2060 nM
TGI [31]: 11300 nM
GI50 [32]: 13000 nM
TGI [32]: > 100000 nM
GI50 [33]: 25400 nM
TGI [33]: > 100000 nM
GI50 [34]: 698 nM
TGI [34]: > 100000 nM
GI50 [35]: 2940 nM
TGI [35]: 77600 nM
GI50 [36]: 1900 nM
TGI [36]: 9000 nM
GI50 [60]: 12000 nM
TGI [60]: > 100000 nM
GI50 [37]: 212 nM
TGI [37]: > 100000 nM
GI50 [38]: 5960 nM
TGI [38]: > 100000 nM
GI50 [39]: 2430 nM
TGI [39]: > 100000 nM
GI50 [40]: 3450 nM
TGI [40]: > 100000 nM
GI50 [41]: 1380 nM
TGI [41]: > 100000 nM
GI50 [42]: 705 nM
TGI [42]: > 100000 nM
GI50 [43]: 13400 nM
TGI [43]: > 100000 nM
GI50 [44]: 15900 nM
TGI [44]: > 100000 nM
GI50 [45]: 14600 nM
TGI [45]: > 100000 nM
GI50 [46]: 530 nM
TGI [46]: 8600 nM
GI50 [47]: 15300 nM
TGI [47]: 61200 nM
GI50 [48]: 4130 nM
TGI [48]: > 100000 nM
GI50 [49]: 7940 nM
TGI [49]: > 100000 nM
GI50 [50]: 80100 nM
TGI [50]: > 100000 nM
GI50 [51]: 2270 nM
TGI [51]: 11000 nM
GI50 [52]: 12800 nM
TGI [52]: > 100000 nM
GI50 [53]: 4180 nM
TGI [53]: > 100000 nM
GI50 [54]: 8930 nM
TGI [54]: > 100000 nM
GI50 [55]: 7650 nM
TGI [55]: > 100000 nM
GI50 [56]: 199 nM
TGI [56]: 11500 nM
GI50 [57]: 171 nM
TGI [57]: 394 nM
GI50 [58]: 66000 nM
TGI [58]: > 100000 nM
